Our source for the melting point values is a melting point compilation (Tetko et al.; mined from patent text by program, amines drawn as free bases though some values may be those of a salt).

Where only a bound is given, the exact number is not on record here.

The term melting point denotes the temperature of the solid-liquid transition.

`COc1ccc(C2(CC(=O)O)CNC(=O)C2)cc1OC` (stereo not given) had a melting point of 162 to 165 °C.

As to `C=CCOc1ccc(OCc2ccccc2)cc1`, the melting point was in the range of 56 to 57 °C.

For `Nc1n[nH]c(Nc2ccccc2)n1`, the melting point lay in the range of 158 to 159 °C.

Consider `N#Cc1c(N2CCCN(c3cccc(C(F)(F)F)c3)CC2)cc[nH]c1=S`, for which the melting point was 247 to 248 °C.

In turn, `C[C@@H]1C[C@@H]([C@H](CC2CCCCC2)NC(=O)OC(C)(C)C)OC1=O` returned a melting point of 80 to 82 °C.

The molecule `CC1(C)OC(=O)c2c(cccc2-c2ccccn2)O1` showed a melting point of 142 °C.

Consider `CC(NC(=O)c1cc(Cl)cc(Br)c1NC(=O)c1cc(Br)nn1-c1ncccc1Cl)C1CC1` (stereo not given), for which the melting point lay in the range of 244 to 247 °C.

The molecule `CC(C)(C)OC(=O)Nc1ccoc1C(N)=O` showed a melting point of 140 to 143 °C.

`CCOC(=O)C(=O)c1ccc(OCCCOc2ccc(C(C)=O)c(O)c2)cc1` had a melting point of 63 to 65 °C.

For the molecule `CCOC(=O)Cn1c(CC)nc2c(O)cccc21`, the melting point fell in the range of 148 to 150 °C.

`COC(=O)C=C1C[N+]([O-])=C(c2ccccc2)c2cc(Cl)ccc2N1` returned a melting point of 215 to 216 °C.

As for `COc1ccc(C2(C#Cc3cnc(N)nc3)CCC(O)CC2)cc1OC1CCCC1` (stereo not given), the melting point fell in the range of 170 to 172 °C.

For the molecule `O=C(O)CCN=c1sc2ccccc2s1`, the melting point was in the range of 203 to 204 °C.

With `COc1ccc(OC)c(C=CC(=O)C=Cc2cc(OC)ccc2OC)c1`, the melting point was in the range of 103 to 104 °C.

In turn, `Cc1onc(-c2ccccc2)c1-c1[nH]c2ccccc2c1CCC(=O)O` returned a melting point of 170 to 172 °C.

`CC1C(=O)N(c2ccccc2OCCCCBr)Sc2ccccc21` (stereo not given) gave a melting point of 93 °C.

Regarding `CC(=C(F)c1ccccc1)c1ccc2c(c1)C(C)(C)CCC2(C)C`, the melting point stood at 100 °C.

Molecule `COc1cc([C@@H]2SC[C@@H](c3cc(OC)c(O)c(OC)c3)S2)cc(OC)c1O` (relative stereo) gave a melting point of 169 to 170 °C.

Consider `N[C@@H]1C(=O)N[C@@H]1COC(=O)c1ccccc1` (relative stereo), for which the melting point lay within 150 to 151 °C.

`CCCCCCCSc1nn2c(=O)c(C)c(Cl)nc2s1` displayed a melting point of 79 to 81 °C.

In turn, `Cc1nc2sccn2c1C1=NNC(=O)CO1` registered a melting point of 274 to 275 °C.

In the case of `CCC(O)CNC(=O)c1n[nH]cc1NC(=O)c1ccccn1` (stereo not given), the melting point fell in the range of 202 to 203 °C.

Molecule `O=c1c2c(Cc3cccc(OC(F)(F)F)c3)n[nH]c2c2cccnc2n1-c1ccccc1` yielded a melting point of 253 to 254 °C.

Molecule `O=C(O)C=Cc1ccc(CCc2ccncc2)cc1` showed a melting point above 300 °C.

In turn, `COc1ccc(-c2[nH]cnc2-c2cc(OC)c(O)c(OC)c2)cc1F` yielded a melting point of 125 to 127 °C.

Turning to `CC(NCCO)c1ccccc1` (stereo not given), the melting point was 60 °C.

Take `CCc1ccc(/C(Cl)=C/c2ccc(Br)cc2)cc1`: the melting point came to 75 °C.

Turning to `CCN1CSCN(CC)C1=S`, the melting point was 94 to 97 °C.

As to `CN(C)c1ccccc1CSc1nccc(=O)[nH]1`, the melting point fell in the range of 156 to 158 °C.

`Cc1cc(O)c(S(=O)C23CC4CC(CC(C4)C2)C3)c(=O)o1` (stereo not given): the melting point came to 174 °C.

`O=[N+]([O-])c1ccc(CN2CCNCCNCCNCC2)cc1` returned a melting point of 128 to 129 °C.

For the molecule `COc1cc(Br)cc2nc(SCc3ccccc3)nn12`, the melting point fell in the range of 80 to 82 °C.

`O=c1[nH]ncc2cc(Br)ccc12` returned a melting point of 280 to 283 °C.

The molecule `CNC(=O)c1c(C)nc(C)n1Cc1ccc2oc(-c3ccccc3NS(=O)(=O)C(F)(F)F)c(Br)c2c1` registered a melting point of 208 to 210 °C.

In the case of `O=Cc1cc(S(=O)(=O)n2ccc3ccccc32)ccc1Br`, the melting point was 106 to 108 °C.

On to `CCC1C(C)=NN=C(c2ccc(OC)c(OC)c2)c2cc(Cl)ccc21` (stereo not given), for which the melting point is 185 to 187 °C.

In turn, `COc1ccc(C2COc3c(ccc(O)c3C)C2O)cc1` (stereo not given) gave a melting point of 162 °C.

Consider `CCCCCCCCCCOc1cc2oc3c(C(=O)OCC)cccc3c(=O)c2cc1CCC(=O)OCC`, for which the melting point lay within 61 to 63 °C.

For the molecule `CCOC(=O)C1(O)CC(C(F)(F)F)=NN1c1ncccc1Cl` (stereo not given), the melting point is 78 to 78.5 °C.

Consider `COc1cccc(CN2CCN(C(=S)SC)CC2)c1OC`, for which the melting point was 110 to 111 °C.

The molecule `Cc1c(Cl)c(Oc2ncc(C(F)(F)F)cc2Cl)nn1C(=O)NC(C)C` had a melting point of 57 to 59 °C.

`CCN(CC)CC(=O)N1c2ccccc2NC(=O)c2c1c(C)cn2C` displayed a melting point of 174 to 175 °C.

With `Nc1ccccc1NC(=O)c1ccc(CNC(=O)c2[nH]c(-c3ccsc3)cc2-c2ccc(O)cc2)cc1`, the melting point lay within 135 to 137 °C.

Regarding `Nc1c(Br)cc(Cc2cc(Br)c(N)c(Br)c2)cc1Br`, the melting point is above 250 °C.

`O=C(O)c1nccc(Cl)c1O` displayed a melting point of 228 °C.

The molecule `CN1COc2cc3c4c(cccc4c21)C(=O)N(O)C3=O` had a melting point of 263 to 265 °C.

In the case of `CN(C)CCNC(=O)Oc1ccc(Cl)cc1Cn1nc(-c2ccc(C(F)(F)F)cc2)oc1=O`, the melting point is 158 to 159 °C.

In turn, `Cc1oc(-c2cccs2)nc1COc1ccc(CON=C(CCC(=O)O)c2ccccc2)cc1` showed a melting point of 142 to 143 °C.

The molecule `C=C(F)C[C@@H](C(=O)O)N(Cc1cccnc1)S(=O)(=O)c1ccc(OC)cc1` displayed a melting point of 172 °C.

`N#Cc1c(Cc2ccccc2)nn(C2CCCC2)c1NC(=O)Cc1ccccc1` gave a melting point of 166 to 168 °C.

On to `CSc1ccc(N2CCOC2=O)cc1[N+](=O)[O-]`, for which the melting point was found to be 180 °C.

With `CC(C)(Oc1ccc(CCCc2cc(-c3ccccc3)no2)cc1)C(=O)O`, the melting point fell in the range of 66 to 70 °C.

For the molecule `Cc1c(-c2ccc3sc(=O)n(C)c3c2)nc2ccccn12`, the melting point is 206 to 208 °C.

For `O=C1c2ccccc2C(=O)c2c(NCCc3ccc(O)cc3)ccc(NCCc3ccc(O)cc3)c21`, the melting point is 240 to 242 °C.

Molecule `COc1ccc(C(O)CN2CCN(C(c3ccccc3)c3ccccc3)CC2)c(OC)c1` (stereo not given) came in with a melting point of 116 °C.

Molecule `Cc1cn(-c2cc(NC(=O)c3cccc4cc(O)ccc34)cc(C(F)(F)F)c2)cn1` yielded a melting point of 169 to 172 °C.

The molecule `Oc1ccc(Oc2ncc(C(F)(F)F)cc2F)cc1` registered a melting point of 97 °C.

As to `Nc1ncnc2c1c(-c1cc(O)cc(F)c1)nn2Cc1oc2ccc(F)cc2c(=O)c1-c1cccc(F)c1`, the melting point lay within 127 to 129 °C.

`CCOC(=O)CC(=O)Nc1ccc(Cl)c(Cl)c1`: the melting point lay within 74 to 75 °C.

Consider `CCCc1nc(-n2c(C)ccc2C)c(C(=O)OC)[nH]1`, for which the melting point is 175 to 176 °C.

In the case of `COc1ccc(CCOC(=O)NC(=O)C(c2ccccc2)c2ccccc2)cc1OC`, the melting point came out at 144 °C.

Regarding `CCOC(=O)n1nc2c(c1N)CN(C(=O)N[C@H](CN(C)C)c1ccccc1)C2(C)C`, the melting point was in the range of 96 to 97 °C.

Take `NC(=O)c1cc(OCCNCC(O)c2ccccc2)ccc1O` (stereo not given): the melting point lay within 166 to 172 °C.

In the case of `CCOC(=O)COc1c(C)c(C(=O)c2ccc(C(=O)OC)cc2)n2ccccc12`, the melting point turned out to be 84.5 °C.

`CC(C)(C)c1ccc(S(=O)(=O)C(CCl)Sc2ccccc2)cc1` (stereo not given) showed a melting point of 104 to 106 °C.

For the molecule `CC(Oc1ccc(NC(=O)NC(=O)c2ccccc2Cl)cc1)c1ccccc1` (stereo not given), the melting point was in the range of 166 to 167 °C.

As to `Cc1nc(Cl)c(SC(F)F)n1-c1c(Cl)cc(C(F)(F)F)cc1Cl`, the melting point amounted to 118 °C.

Turning to `OCC1OC2CC(O)CC(C2)O1` (stereo not given), the melting point fell in the range of 146 to 149 °C.

In the case of `CCc1cc(O)nc(C)n1`, the melting point was 118 to 119 °C.

`CCOC(=O)C(=CNc1ncnc2ccc(NC(=O)C(CC)CC)cc12)C(=O)OCC` displayed a melting point of 191 to 194 °C.

`CCOC(=O)C1=NN(C(=O)c2ccccc2I)C(C(=O)OCC)=NN1C(=O)c1ccccc1I` returned a melting point of 186 to 187 °C.

As to `FC(F)(F)c1cccc(Oc2cc(Oc3cccc(C(F)(F)F)c3)nc(Br)n2)c1`, the melting point lay in the range of 126 to 129 °C.

As for `CCCCCCCCCCCCc1nnc(C(C(=O)Nc2c(OC)cc(OC)cc2OC)c2ccccc2)o1` (stereo not given), the melting point lay within 120 to 121 °C.

Molecule `CN(C)C(=O)C1=Cc2cccc(OC[C@@H]3CO3)c2OC1` returned a melting point of 115 to 117 °C.

The molecule `CCC(OCC(F)F)c1ccc(Cl)c2nc3n(c12)CCCN3c1ccc(OC)nc1C` (stereo not given) showed a melting point of 130 to 132 °C.

`NCc1cccc(N2C(=O)N(c3ccccc3Br)Cc3cnc(Nc4ccccc4)nc32)c1`: the melting point is 121 °C.

`CCN1CC(OCC2CC2)(C(F)(F)F)c2cc(F)ccc2NC1=O` (stereo not given) yielded a melting point of 156 °C.

As to `COC(=O)c1cc(-c2ncnc(C)c2C#N)c(F)cc1Cl`, the melting point was 142 to 144 °C.

The molecule `O=C(Nc1ccc(C(=O)N2Cc3ccccc3Cc3ccccc32)cc1)c1ccccc1C(F)(F)F` returned a melting point of 191 to 193 °C.

As for `CN1C(=O)C(C)(C)N=C(c2ccccc2F)c2c1cc(Br)c(N)c2Br`, the melting point was 202 °C.

Take `Cc1nc(-c2cccc(CN(C(=O)Nc3ccc(-c4ccccc4S(=O)(=O)NC(C)(C)C)cc3)c3ccccc3)c2)no1`: the melting point lay in the range of 191 to 192 °C.

Regarding `CCOC(=O)c1c(C2CCN(C)CC2)[nH]c(-c2ccc(F)c(F)c2)c1-c1ccncc1`, the melting point lay in the range of 262 to 265 °C.

Molecule `CON=C(c1ccccc1)c1ccccc1N` gave a melting point of 138 °C.

The molecule `CCCCCCSC1c2cccc(O)c2C(=O)c2c(O)cccc21` gave a melting point of 49 to 50 °C.

As to `CNC(=O)C(C)(C)n1cc(C)c(-c2ccccc2Cl)n1`, the melting point lay within 87 to 90.5 °C.

Consider `COc1ccc(C(=O)c2cccc(C(F)(F)F)c2)cc1C`, for which the melting point lay in the range of 56 to 59 °C.

For the molecule `Cc1nc(N2CCC[C@H]2CO)c2nc(-c3ccccc3)cc-2[nH]1`, the melting point lay within 255 to 256 °C.

On to `CC(C)(C)OC(=O)N1CCC(c2cc(C(F)(F)F)ccc2N)CC1`, for which the melting point was 120 °C.

The molecule `Cc1ccccc1NC(=O)Nc1ccc(N)cc1` yielded a melting point above 300 °C.

`CN1C(=O)CN(c2ccc(F)cc2)NC1=O` registered a melting point of 205 to 206 °C.
